Results published in PMC11407943, “Cdc14 phosphatases use an intramolecular pseudosubstrate motif to stimulate and regulate catalysis” (The Journal of Biological Chemistry, 2024).
Starred links: 1 amine or outer side, 2 acyl side, 3 side chain; linkers in the order of their positions; H or OH if unused. Positions of bridges follow the written chain, without caps; N, C: chain ends. Non-standard residues stand in square brackets, D forms with d. Residues, ends and D or L forms follow the SMILES beside them. No end group written: not given here. *: point of attachment. hTyr(3S-OH,4S-OH,3'-OSO3H) = N[C@H](C(=O)O)[C@H](O)[C@@H](O)c1ccc(O)c(OS(=O)(=O)O)c1; Orn(4R-OH,5R-OH) = O=C([C@H](C[C@@H](O)[C@@H](O)N[*:3])N[*:1])[*:2]; Pro(3S-OH,4S-Me) = C[C@H]1CN[C@H](C(=O)O)[C@H]1O; X1 = CCCCCOc1ccc(-c2cc(-c3ccc(C(=O)*)cc3)no2)cc1; Gln(3R-OH) = NC(=O)C[C@@H](O)[C@H](N)C(=O)O; Hyp = O=C(O)[C@@H]1C[C@@H](O)CN1; pS = N[C@@H](COP(=O)(O)O)C(=O)O

Key:
hCdc14A^Q395A = target: T1, hCdc14A^Q395A (Homo sapiens, UniProt Q9UNH5, Q395A); details: n = 3
T1 construct: gene CDC14A
T1 sequence (Q9UNH5 1-413 Q395A): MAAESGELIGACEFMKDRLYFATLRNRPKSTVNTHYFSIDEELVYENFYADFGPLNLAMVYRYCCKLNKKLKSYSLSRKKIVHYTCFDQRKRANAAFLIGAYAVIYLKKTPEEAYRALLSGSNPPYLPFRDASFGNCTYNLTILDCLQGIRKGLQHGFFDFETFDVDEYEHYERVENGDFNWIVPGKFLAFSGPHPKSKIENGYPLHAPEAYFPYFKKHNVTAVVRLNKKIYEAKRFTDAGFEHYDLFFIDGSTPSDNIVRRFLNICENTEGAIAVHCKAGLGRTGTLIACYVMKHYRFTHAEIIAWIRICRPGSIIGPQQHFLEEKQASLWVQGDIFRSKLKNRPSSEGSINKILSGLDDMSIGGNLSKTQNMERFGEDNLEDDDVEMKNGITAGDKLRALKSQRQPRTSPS
Protocol: (§1) Data from velocity versus substrate concentration plots were fit with the Michaelis–Menten equation in GraphPad Prism (https://www.graphpad.com/) to determine steady-state kinetic parameters kcat and KM. For trans peptide stimulation assays, DiFMUP was used at a single concentration well above the measured KM for each enzyme. […] (where pS is phosphoSer), were assayed in Cdc14 reaction buffer with Biomol Green (Enzo Life Science) detection of released inorganic phosphate as previously described ([29]). Data were fit with a modified Michaelis–Menten equation including a substrate inhibition term in Prism.
(§2) B, initial velocities as a function of increasing DiFMUP concentration were measured under steady-state conditions for the indicated ScCdc14 variants. […] Data are average values from at least three independent measurements. Error bars are SDs. Lines are best fits for the Michaelis–Menten equation. C, to better visualize differences in KM, all Vmax values from data in panel A were normalized to 1. […] E, a representative presteady-state reaction progress graph for reaction of the indicated ScCdc14 enzyme variants with 200 μM DiFMUP, measured in a stopped flow spectrofluorometer. Data were fit with Equation 1 (see Experimental procedures) to generate rates of the burst phase (kburst) of the reaction. […]

hCdc14A^3A [1] = target: T2, hCdc14A^3A (Homo sapiens, UniProt Q9UNH5, L399A/R400A/K403A); details: n = 3
T2 construct: gene CDC14A
T2 sequence (Q9UNH5 1-413 L399A/R400A/K403A): as the sequence (Q9UNH5 1-413 Q395A) above, with A395Q, L399A, R400A, K403A counted along it
Protocol: as §1, §2

hCdc14A^1-413 = target: T3, hCdc14A^1-413 (Homo sapiens, UniProt Q9UNH5); details: n = 3
T3 construct: gene CDC14A
T3 sequence (Q9UNH5 1-413): as the sequence (Q9UNH5 1-413 Q395A) above, with A395Q counted along it
Protocol: as §1, §2

[2] = tested on: C. albicans cdc14^S411A and cdc14^S411E strains; test: Agar plate patch assay, C. albicans cdc14 mutant strains; details: colonies arising from cdc14^S411A and cdc14^S411E strains; YPD + 50 ng/ml micafungin
Protocol: Values are means of at least six independent measurements and error bars are SDs. […] E, agar plate patch assay with the indicated Candida albicans strains on YPD or YPD + 50 ng/ml micafungin. Plates were incubated at 30 °C for 72 h prior to imaging. Images in panels D and E are representative of multiple experiments performed with three independent isolates of the Ala and Glu mutant strains.
S. cerevisiae and C. albicans cultures were grown in yeast extract/peptone/dextrose (YPD) medium (10 g/l yeast extract, 20 g/l peptone, and 20 g/l glucose) at 30 °C with shaking at 225 rpm. C. albicans strains were supplemented with 8 μg/ml uridine. […] Agar was added to 20% (w/v) for growth on solid medium. […] For C. albicans patch assays, single colonies were resuspended in 100 μl PBS and spread on YPD agar plates ± 50 ng/ml micafungin.

ScCdc14^1-374 = test: Trans stimulation of ScCdc14^1-374 by synthetic SLiCE peptides; assay type: biochemical, Saccharomyces cerevisiae; details: for trans stimulation, interchangeability test: 2 mM peptide, 10 μM DiFMUP, 50 nM ScCdc14^1-374, versus unstimulated
hCdc14A^3A [3] = test: Trans stimulation of hCdc14A^3A by synthetic SLiCE peptides; details: for trans stimulation, interchangeability test: 2 mM peptide, 100 μM DiFMUP, 10 nM hCdc14A^3A, versus unstimulated; for stimulation of activity: near-saturating DiFMUP (300 μM), pH 7.5, 30 °C
Protocol: (§3) B, same as panel A with WT hCdc14A that contains a functional SLiCE motif. […] All reactions contained 200 μM peptide substrate and were run for 30 min. […] Data are means of six measurements and error bars are SDs. D, same as panel C with hCdc14A enzyme at 1 μM for human SLiCE substrate and 100 nM for yeast SLiCE and Acm1pS3 substrates. E, peptide stimulation assays using 10 μM DiFMUP as substrate were conducted as in Figures 3A and 6A with ScCdc14^1-374 (50 nM) and 2 mM each stimulating peptide. F, same as panel E with hCdc14A^3A (10 nM) using 100 μM DiFMUP.
(§4) For trans peptide stimulation assays, DiFMUP was used at a single concentration well above the measured KM for each enzyme. […] (where pS is phosphoSer), were assayed in Cdc14 reaction buffer with Biomol Green (Enzo Life Science) detection of released inorganic phosphate as previously described ([29]). Data were fit with a modified Michaelis–Menten equation including a substrate inhibition term in Prism.

ScCdc14^1-449 = ScCdc14^1-449 (Saccharomyces cerevisiae, UniProt Q00684); test: Dephosphorylation of SLiCE phosphopeptides by ScCdc14^1-449; details: 200 μM peptide, 30 min; enzyme 50 nM (yeast SLiCE), 1 μM (human SLiCE), 25 nM (Acm1pS3); mean of six
ScCdc14^1-449, sequence (Q00684 1-449): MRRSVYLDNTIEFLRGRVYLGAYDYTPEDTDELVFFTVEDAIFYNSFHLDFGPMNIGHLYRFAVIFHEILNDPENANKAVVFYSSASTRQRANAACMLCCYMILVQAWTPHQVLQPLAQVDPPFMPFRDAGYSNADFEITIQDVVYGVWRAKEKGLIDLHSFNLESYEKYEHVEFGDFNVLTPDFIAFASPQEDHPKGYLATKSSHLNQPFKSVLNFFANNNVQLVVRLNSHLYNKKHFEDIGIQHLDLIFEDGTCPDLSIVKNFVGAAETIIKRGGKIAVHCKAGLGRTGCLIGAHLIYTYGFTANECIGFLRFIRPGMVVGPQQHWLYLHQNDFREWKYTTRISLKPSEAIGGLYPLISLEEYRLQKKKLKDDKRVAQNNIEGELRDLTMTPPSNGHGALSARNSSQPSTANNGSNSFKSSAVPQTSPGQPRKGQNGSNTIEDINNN
Protocol: as §3, §4

WT hCdc14A = test: Trans stimulation of WT hCdc14A by synthetic SLiCE peptides; details: near-saturating DiFMUP (300 μM), pH 7.5, 30 °C
Protocol: as §3, §4

ScCdc14 = test: Inhibition of ScCdc14 activity toward DiFMUP (not shown); assay type: biochemical, Saccharomyces cerevisiae
hCdc14A [4] = test: Inhibition of hCdc14A activity toward DiFMUP (not shown); assay type: biochemical, human
hCdc14A [5] = test: Dephosphorylation of SLiCE phosphopeptides by hCdc14A; details: 200 μM peptide, 30 min; enzyme 1 μM (human SLiCE), 100 nM (yeast SLiCE and Acm1pS3); mean of six
Protocol: as §3, §4

In the case of Cc1cc(=O)oc2c(F)c(OP(=O)(O)O)c(F)cc12 [DiFMUP], the Km (hCdc14A^Q395A) is reported as 2.6 µM, the Km (hCdc14A^3A [1]) is reported as 0.52 µM and the Km (hCdc14A^1-413) is reported as 24 µM.
CCCCCOc1ccc(-c2cc(-c3ccc(C(=O)N[C@H]4C[C@@H](O)[C@@H](O)NC(=O)[C@@H]5[C@@H](O)[C@@H](C)CN5C(=O)[C@H]([C@H](O)CC(N)=O)NC(=O)[C@H]([C@H](O)[C@@H](O)c5ccc(O)c(OS(=O)(=O)O)c5)NC(=O)[C@@H]5C[C@@H](O)CN5C(=O)[C@H]([C@@H](C)O)NC4=O)cc3)no2)cc1 [micafungin] (X1-[Orn(4R-OH,5R-OH)]T[Hyp][hTyr(3S-OH,4S-OH,3'-OSO3H)][Gln(3R-OH)][Pro(3S-OH,4S-Me)]; lactam 1-C) was tested, and the “sensitivity of sporadic faster growing colonies” value [2] was “resistant”.
For QTSPGQPRKGQN [yeast SLiCE peptide], the “trans stimulation, interchangeability test” value (ScCdc14^1-374) was “only able to significantly stimulate ScCdc14”, the “stimulation of catalytic rate” value (ScCdc14^1-374; near-saturating DiFMUP (60 μM), pH 7.5, 30 °C, normalized to no added peptide, at least three independent measurements) was “dose-dependent stimulation” and the “trans stimulation, interchangeability test” value (hCdc14A^3A [3]) was “no effect on hCdc14A activity”.
For “QTSPG[pS]PRKGQN [yeast SLiCE phosphopeptide]”, the dephosphorylation as substrate (ScCdc14^1-449) was “excellent Cdc14 substrate for both ScCdc14 and hCdc14A, almost as reactive as the optimal Acm1pS3 phosphopeptide”.
For TAGDKLRALKSQR [Q395A peptide], the stimulation of activity (WT hCdc14A) was “little effect on activity of either enzyme” and the stimulation of activity (hCdc14A^3A [3]) was “little effect on activity of either enzyme”.
For TQGDKAAALASQR [3A peptide], the stimulation of activity (WT hCdc14A) was “little effect on activity of either enzyme” and the stimulation of activity (hCdc14A^3A [3]) was “little effect on activity of either enzyme”.
For TQGDKLRALKSQR [human SLiCE peptide], the “trans stimulation, interchangeability test” value (ScCdc14^1-374) was “failed to significantly stimulate ScCdc14”, the stimulation of activity (WT hCdc14A) was “relatively small effect” and the “trans stimulation, interchangeability test” value (hCdc14A^3A [3]) was “strongly stimulating hCdc14A”. The stimulation of activity (hCdc14A^3A [3]) was “strongly stimulated activity”.
“T[pS]GDKLRALKSQR [human SLiCE phosphopeptide, T(pS)… where pS is phosphoserine]” was tested, and the dephosphorylation as substrate (ScCdc14^1-449) was “could not be dephosphorylated”, the “inhibition of activity toward DiFMUP” value (ScCdc14) was “unable to detect any inhibition” and the “inhibition of activity toward DiFMUP” value (hCdc14A [4]) was “unable to detect any inhibition”. For the same compound, the dephosphorylation as substrate (hCdc14A [5]) was “could not be dephosphorylated”.
